Here are results for four compounds from patent publication US7247634B2, “Rifamycin derivatives effective against drug-resistant microbes” (Cumbre Pharmaceuticals Inc., priority 2004, dated 2007).

Values after ≈ are worked out from the molar mass of the structure shown.

Common to all, as to assay type: cell-based
Assay [1] deals with Mycobacterium smegmatis ATCC700084. The assay is described as follows: MIC, microbroth dilution (NCCLS). The following applies: Mycolicibacterium smegmatis, rifS strain, Middlebrook Broth plus ADC Enrichment, 37° C., read-out: Antimicrobial activity (MIC). (Broth dilution looks for growth in wells or tubes with falling amounts of substance.)
The subject of assay [2] is Staphylococcus aureus ATCC29213. In words: MIC, microbroth dilution (NCCLS). The settings on record: rifS strain, Cation-Adjusted Mueller-Hinton Broth, 37° C., read-out: Antimicrobial activity (MIC).
The subject of assay [3] is Streptococcus pneumoniae ATCC6303. The assay is described as follows: MIC, microbroth dilution (NCCLS). The settings on record: rifS strain, THY Broth with 1 mg/mL catalase, 5% CO2, 37° C., read-out: Antimicrobial activity (MIC).
Assay [4] deals with Staphylococcus epidermidis ATCC12228. In words: MIC, microbroth dilution (NCCLS). The settings on record: rifS strain, Cation-Adjusted Mueller-Hinton Broth, 37° C., read-out: Antimicrobial activity (MIC).
Assay [5] concerns Staphylococcus aureus EN1252a gyrA^S84L grlA^S80F. The assay is described as follows: microbe, parasite or virus in culture. The following applies: read-out: Antimicrobial activity (MIC). The procedure:
(§1) Representative compounds were assayed for antimicrobial activity as follows: Minimum Inhibitory Concentrations (“MICs”) were determined by the microbroth dilution method as per NCCLS guidelines (National Committee for Clinical Laboratory Standards. 2000. Methods for dilution antimicrobial susceptibility tests for bacteria that grow aerobically, 5th ed. M7-A5. National Committee for Clinical Laboratory Standards, Wayne, Pa.), except that all growth incubations were conducted at 37° C. Bacterial cultures were tested in the following bacteriological media: S. aureus, S. epidermidis, and E. coli in Cation-Adjusted Mueller-Hinton Broth, S. pneumoniae in THY Broth supplemented with 1 mg/mL catalase under 5% CO2 atmosphere, S. pyogenes in THY Broth, E. faecalis in BHI Broth, H. influenzae in BHI Broth supplemented with 0.75 μL of 1 mg/mL NAD and 150 μL of 1 mg/ml hematin per 5 mL, and M. smegmatis in Middlebrook Broth plus ADC Enrichment.
(§2) S. aureus ATCC 29213 RpoB^H418Y is a rifampin-resistant strain with a mutation in RNA polymerase, the biological target of rifamycin antibiotics. […] S. aureus EN1252a gyrA^S84L grlA^S80F is a quinolone-resistant strain due to double mutations to DNA gyrase and topoisomerase IV, the two biological targets for quinolone antibiotics.

Assay [6] has as its system Staphylococcus aureus ATCC29213 rpoB^H418Y. In words: microbe, parasite or virus in culture. The following applies: ATCC29213, read-out: Antimicrobial activity (MIC). As for the experimental part: as §1, §2
The test system of assay [7] is Staphylococcus aureus ATCC29213 rpoB^D417Y. In words: microbe, parasite or virus in culture. The settings on record: ATCC29213, read-out: Antimicrobial activity (MIC). The procedure: as §1, §2
In assay [8] the test system is Escherichia coli ATCC25922. In words: MIC, microbroth dilution (NCCLS). The following applies: rifS strain, Cation-Adjusted Mueller-Hinton Broth, 37° C., read-out: Antimicrobial activity (MIC).
For assay [9], the system named is Haemophilus influenzae ATCC10211. In words: MIC, microbroth dilution (NCCLS). The following applies: rifS strain, BHI Broth with NAD and hematin, 37° C., read-out: Antimicrobial activity (MIC).
Assay [10] deals with Enterococcus faecalis ATCC29212. The assay is described as follows: MIC, microbroth dilution (NCCLS). The settings on record: rifS strain, BHI Broth, 37° C., read-out: Antimicrobial activity (MIC).
Assay [11] has as its system Streptococcus pyogenes ATCC19615. In words: MIC, microbroth dilution (NCCLS). The following applies: rifS strain, THY Broth, 37° C., read-out: Antimicrobial activity (MIC).

For `COc1c(N2CCC(NC(=O)C3CCN(C4=C5NC(=O)/C(C)=C\C=C\[C@H](C)[C@H](O)[C@@H](C)[C@@H](O)[C@@H](C)[C@H](OC(C)=O)[C@H](C)[C@@H](OC)/C=C/O[C@@]6(C)Oc7c(C)c(O)c(c(c7C6=O)C4=O)C5=O)CC3)C2)c(F)cc2c(=O)c(C(=O)O)cn(C3CC3)c12` (mixture of isomers) [Example 50, (R/S)-3-{4-[1-(3-Carboxy-1-cyclopropyl-6-fluoro-8-methoxy-4-oxo-1,4-dihydroquinolin-7-yl)-pyrrolidin-3-ylcarbamoyl]-piperidin-1-yl}rifamycin S], the MIC lay within 0.5 to 64 µg/mL in assay [1]; 0.004 to 0.5 µg/mL (≈ 0.00343 to 0.429 µM) in assay [2]; 0.008 to 0.125 µg/mL (≈ 0.00686 to 0.107 µM) in assay [3]; 0.008 to 0.063 µg/mL (≈ 0.00686 to 0.054 µM) in [4]; 0.004 to 0.5 µg/mL (≈ 0.00343 to 0.429 µM) in assay [5]; 0.06 to 16 µg/mL (≈ 0.0514 to 13.7 µM) in [6]. Moreover, the MIC lay within 0.06 to 32 µg/mL (≈ 0.0514 to 27.4 µM) in assay [7]; 0.125 to 8 µg/mL (≈ 0.107 to 6.86 µM) in assay [8]; 0.125 to 2 µg/mL (≈ 0.107 to 1.71 µM) in [9]; 2 to 32 µg/mL (≈ 1.71 to 27.4 µM) in assay [10]; 0.008 to 0.063 µg/mL (≈ 0.00686 to 0.054 µM) in [11].

Take `COc1c(N2CCC(N(C)C3CCN(C4=C5NC(=O)/C(C)=C\C=C\[C@H](C)[C@H](O)[C@@H](C)[C@@H](O)[C@@H](C)[C@H](OC(C)=O)[C@H](C)[C@@H](OC)/C=C/O[C@@]6(C)Oc7c(C)c(O)c(c(c7C6=O)C4=O)C5=O)CC3)C2)c(F)cc2c(=O)c(C(=O)O)cn(C3CC3)c12` (mixture of isomers) [Example 34]: the MIC lay in the range of 0.5 to 64 µg/mL in [1]; 0.004 to 0.5 µg/mL (≈ 0.00347 to 0.434 µM) in assay [2]; 0.008 to 0.125 µg/mL (≈ 0.00694 to 0.108 µM) in assay [3]; 0.008 to 0.063 µg/mL (≈ 0.00694 to 0.0547 µM) in assay [4]; 0.004 to 0.5 µg/mL (≈ 0.00347 to 0.434 µM) in assay [5]; 0.06 to 16 µg/mL (≈ 0.0521 to 13.9 µM) in [6]. The MIC in [7] fell in the range of 0.06 to 32 µg/mL (≈ 0.0521 to 27.8 µM); in assay [8], 0.125 to 8 µg/mL (≈ 0.108 to 6.94 µM); in assay [9], 0.125 to 2 µg/mL (≈ 0.108 to 1.74 µM); in assay [10] it was 2 to 32 µg/mL (≈ 1.74 to 27.8 µM); in [11] it was 0.008 to 0.063 µg/mL (≈ 0.00694 to 0.0547 µM).

As for `COc1c(N2CC3CCCN(C4CCN(C5=C6NC(=O)/C(C)=C\C=C\[C@H](C)[C@H](O)[C@@H](C)[C@@H](O)[C@@H](C)[C@H](OC(C)=O)[C@H](C)[C@@H](OC)/C=C/O[C@@]7(C)Oc8c(C)c(O)c(c(c8C7=O)C5=O)C6=O)CC4)C3C2)c(F)cc2c(=O)c(C(=O)O)cn(C3CC3)c12` (some centres unmarked) [Example 35, 3-{4-[6-(3-Carboxy-1-cyclopropyl-6-fluoro-8-methoxy-4-oxo-1,4-dihydroquinolin-7-yl)-octahydro-pyrrolo[3,4-b]-pyrridin-1-yl]-piperidin-1-yl}rifamycin S], the MIC in [1] is 0.5 to 64 µg/mL; in assay [2] it was 0.004 to 0.5 µg/mL (≈ 0.00339 to 0.424 µM); in assay [3], 0.008 to 0.125 µg/mL (≈ 0.00679 to 0.106 µM); in [4] it was 0.008 to 0.063 µg/mL (≈ 0.00679 to 0.0535 µM); in assay [5], 0.004 to 0.5 µg/mL (≈ 0.00339 to 0.424 µM); in [6], 0.06 to 16 µg/mL (≈ 0.0509 to 13.6 µM). Moreover, the MIC in [7] fell in the range of 0.06 to 32 µg/mL (≈ 0.0509 to 27.2 µM); in assay [8] it was 0.125 to 8 µg/mL (≈ 0.106 to 6.79 µM); in assay [9], 0.125 to 2 µg/mL (≈ 0.106 to 1.7 µM); in assay [10] it was 2 to 32 µg/mL (≈ 1.7 to 27.2 µM); in assay [11] it was 0.008 to 0.063 µg/mL (≈ 0.00679 to 0.0535 µM).

For the compound `COc1c(N2CCN(C3=C4NC(=O)/C(C)=C\C=C\[C@H](C)[C@H](O)[C@@H](C)[C@@H](O)[C@@H](C)[C@H](OC(C)=O)[C@H](C)[C@@H](OC)/C=C/O[C@@]5(C)Oc6c(C)c(O)c(c(c6C5=O)C3=O)C4=O)CC2)c(F)cc2c(=O)c(C(=O)O)cn(C3CC3)c12` [Example 26, 3-[4-(3-Carboxy-1-cyclopropyl-6-fluoro-8-methoxy-4-oxo-1,4-dihydroquinolin-7-yl)-piperazin-1-yl]rifamycin S], the MIC in assay [1] was in the range of 0.5 to 64 µg/mL; in assay [2] it was 0.004 to 0.5 µg/mL (≈ 0.00379 to 0.474 µM); in assay [3], 0.008 to 0.125 µg/mL (≈ 0.00758 to 0.118 µM); in assay [4] it was 0.008 to 0.063 µg/mL (≈ 0.00758 to 0.0597 µM); in assay [5], 0.004 to 0.5 µg/mL (≈ 0.00379 to 0.474 µM); in [6], 0.06 to 16 µg/mL (≈ 0.0569 to 15.2 µM). Moreover, the MIC in assay [7] fell in the range of 0.06 to 32 µg/mL (≈ 0.0569 to 30.3 µM); in [8] it was 0.125 to 8 µg/mL (≈ 0.118 to 7.58 µM); in assay [9], 0.125 to 2 µg/mL (≈ 0.118 to 1.9 µM); in [10], 2 to 32 µg/mL (≈ 1.9 to 30.3 µM); in assay [11], 0.008 to 0.063 µg/mL (≈ 0.00758 to 0.0597 µM).
